From patent publication US8993768B2, “Tropolone compounds for treating or preventing retroviral infection” (The United States of America, as represented by the …, priority 2011, dated 2015)
Read-outs that look alike come from different tables or passages of the source.

Assays:
[1] = Compound cytotoxicity in uninfected cells (same assay plate); format: cell-based; settings: human, uninfected CEM-SS cells; read-out: Virus Replication CC50
Experimental: (§1) All samples were tested in duplicate. The HIV-1 virus strain RF was used to infect CEM-SS cells. Compound cytotoxicity was measured in the same assay plate using uninfected cells. Regression analysis was used to estimate the effective concentration (EC50) as well as the cytotoxic concentration (CC50).

[2] = target: T1, p66^DA/p51 HIV-1 RT (Human immunodeficiency virus type 1 group M subtype B, UniProt P04585, D1136A); assay: DNA-dependent DNA polymerase assay, RNase H-deficient mutant p66DA/p51; format: biochemical; settings: 20 μM
T1 construct: RT is a p66/p51 heterodimer comprised of asymmetrically-organized subunits processed from the 165 kDa gag/pol polyprotein precursor; (His)6; made in house; host or cells: Escherichia coli
Experimental: (§2) DNA-dependent DNA synthesis was measured on a fluorescently-labeled duplex DNA prepared by annealing a 33-nt template, 5′-CACTGCTCAAGAAGTTCCAATCCTAAATACATA-3′ (SEQ ID NO: 3), to the 5′-Cy5-labeled primer 5′-ATGTATGGGTATGTATTTAGG-3′ (SEQ ID NO: 4). Polymerization was initiated by adding 1 μl of 2 mM dNTPs to 9 μl of mixture containing 4 ng enzyme, 200 nM substrate, 20 μM α-hydroxytropolones in 10 mM Tris, pH 7.8, 80 mM KCl, 1 mM DTT, 10 mM MgCl2, and 10% DMSO at 37° C. DNA synthesis was quenched with 10 μl of a gel-loading buffer after 10 minutes, and reaction products were analyzed by denaturing polyacrylamide gel electrophoresis and fluorescent imaging.
(§3) In order to examine the specificity of our manicol analogs, their effect on the DNA polymerase activity of wild type p66/p51 HIV-1 RT and RNase H-deficient derivatives was determined. In particular, RNase H-deficient strains p66^EQ/p51 and p66^DA/p51, were tested, which harbor mutations in one of the catalytically-critical amino acids contacted by manicol (E478 and D549, respectively), that would be predicted to interfere with α-hydroxytropolone binding.
(§4) Although crystallographic evidence is presently unavailable, compounds 5 and 10, thus appear capable of occupying a second site on HIV-1 RT.

[3] = system: HIV-1 virus strain RF in CEM-SS cells; assay: HIV-1 cytopathicity assay; format: cell-based; settings: for EC50: read-out: Virus Replication EC50
Experimental: This assay was conducted as previously reported (Weislow, O, S., et al., J. Natl. Cancer Inst., 81(8):577-86 (1989)). Samples were dissolved in DMSO at 10 mM and diluted to a final high concentration of 50 μM in the 96-well assay plate, with 2-fold dilutions made to a low concentration of about 0.78 μM. All samples were tested in duplicate. The HIV-1 virus strain RF was used to infect CEM-SS cells. Compound cytotoxicity was measured in the same assay plate using uninfected cells. Regression analysis was used to estimate the effective concentration (EC50) as well as the cytotoxic concentration (CC50).

[4] = target: T2, HIV-1 RNase H (p66/p51 HIV-1 RT) (Human immunodeficiency virus type 1 group M subtype B, UniProt P04585); assay: High throughput RNase H assay on sequence-independent RNA/DNA hybrid; format: biochemical; settings: HIV-1 RNase H enzymatic activity, sequence-independent RNA/DNA hybrid; read-out: In vitro IC50
T2 construct: RT is a p66/p51 heterodimer comprised of asymmetrically-organized subunits processed from the 165 kDa gag/pol polyprotein precursor; (His)6; made in house; host or cells: Escherichia coli
Experimental: IC50 values were determined as previously reported (Budihas, S. R., et al., Nucleic Acids Res., 33(4):1249-56 (2005)), using an 18-nucleotide 3′-flourescein-labeled RNA annealed to a complementary 18-nucleotide 5′-dabsyl-labeled DNA. […] The reaction was initiated by adding 1 μl of 100 mM MgCl2 to 9 μl of mixture containing 4 ng enzyme, 200 nM substrate, 20 μM α-hydroxytropolones in 50 mM Tris, pH 8.0, 80 mM KCl, 2 mM DTT, and 10% DMSO at 37° C., and quenched with 10 μl of a gel-loading buffer after 10 minutes. Hydrolysis products were fractionated by denaturing polyacrylamide gel electrophoresis and visualized by fluorescent imaging (Typhoon Trio+, GE Healthcare, Piscataway, N.J.). […]

[5] = target: T3, HIV-1 RT RNase H (Human immunodeficiency virus type 1 group M subtype B, UniProt P04585); assay: Cleavage of the HIV-1 polypurine tract (PPT) primer, PPT/U3 junction; format: biochemical; settings: 20 μM inhibitor
T3 construct: RT is a p66/p51 heterodimer comprised of asymmetrically-organized subunits processed from the 165 kDa gag/pol polyprotein precursor; (His)6; made in house; host or cells: Escherichia coli
Experimental: FIG. 2A depicts a schematic model of RNA/DNA substrate, indicating the RNase H cleavage site at the PPT/U3 junction (< >). The PPT is indicated by the shaded box. FIG. 2B depicts the quantification of PPT cleavage data. All inhibitors were evaluated at 20 μM.
IC50 values were determined as previously reported (Budihas, S. R., et al., Nucleic Acids Res., 33(4):1249-56 (2005)), using an 18-nucleotide 3′-flourescein-labeled RNA annealed to a complementary 18-nucleotide 5′-dabsyl-labeled DNA. […] The reaction was initiated by adding 1 μl of 100 mM MgCl2 to 9 μl of mixture containing 4 ng enzyme, 200 nM substrate, 20 μM α-hydroxytropolones in 50 mM Tris, pH 8.0, 80 mM KCl, 2 mM DTT, and 10% DMSO at 37° C., and quenched with 10 μl of a gel-loading buffer after 10 minutes. Hydrolysis products were fractionated by denaturing polyacrylamide gel electrophoresis and visualized by fluorescent imaging (Typhoon Trio+, GE Healthcare, Piscataway, N.J.).
Since the high-throughput RNase H assay examines non-specific, “polymerase-independent” RNase H activity defined by the spatial separation of the DNA polymerase and RNase H active site of HIV-1 RT (Gopalakrishnan, V., et al., Proc. Natl. Acad. Sci. USA, 89(22):10763-7 (1992)), an examination of whether α-hydroxytropolones altered cleavage specificity on a more biologically-relevant substrate, namely the polypurine tract (PPT) primer, which must be processed from the RNA/DNA replication intermediate to initiate (+) strand DNA synthesis.

[6] = target: T4, p66^EQ/p51 HIV-1 RT (Human immunodeficiency virus type 1 group M subtype B, UniProt P04585, E1065Q); assay: DNA-dependent DNA polymerase assay, RNase H-deficient mutant p66EQ/p51; format: biochemical; settings: 20 μM
T4 construct: RT is a p66/p51 heterodimer comprised of asymmetrically-organized subunits processed from the 165 kDa gag/pol polyprotein precursor; (His)6; made in house; host or cells: Escherichia coli
Experimental: as §2, §3, §4

[7] = system: uninfected CEM-SS cells; assay: Compound cytotoxicity in uninfected cells (same assay plate); format: cell-based
Experimental: as §1

[8] = target: T2, HIV-1 RNase H (p66/p51 HIV-1 RT); settings: background, previously demonstrated; cited from earlier work
[9] = system: HIV-1 virus strain RF in CEM-SS cells; settings: background, previous finding; cited from earlier work

| Compound | CC50 [1] [µM] | effect on DNA-dependent DNA polymerase activity [2] | protection against the cytopathic effect of the virus (in words) ([3]; HIV-1 RF) | EC50 ([3]; Human immunodeficiency virus 1, CEM-SS, HIV-1 RF) [µM] | IC50 [4] [µM] | inhibition of PPT/U3 cleavage (in words) [5] | effect on DNA-dependent DNA polymerase activity [6] | CC50 [7] [µM] | EC50 ([3]; HIV-1 RF) [µM] | inhibition of RNase H activity of HIV RT in vitro [8] | EC50 ([3]; Human immunodeficiency virus 1, HIV-1 RF) [µM] | reduction of virus replication in culture [9] |
| --- | --- | --- | --- | --- | --- | --- | --- | --- | --- | --- | --- | --- |
| Cc1cc(O)c(=O)c(O)c2c1CC(C(C)(O)CNc1ccccc1)CC2 (mixture of isomers) [Compound 5, 5,7-Dihydroxy-2-(1-hydroxy-1-methyl-2-phenylamino-ethyl)-9-methyl-1,2,3,4-tetrahydrobenzocyclohepten-6-one] | 31.7 | significantly and consistently inhibited | showed protection | 7.4 | 1.2 | more active in blocking PPT/U3 cleavage | significantly and consistently inhibited | – | – | – | – | – |
| Cc1cc(O)c(=O)c(O)c2c1CC(C(C)(O)C[S+]([O-])Cc1ccccc1)CC2 (stereo not shown) [Compound 10, 2-(2-Benzylsulfinyl-1-hydroxy-1-methyl-ethyl)-5,7-dihydroxy-9-methyl-1,2,3,4-tetrahydrobenzocyclohepten-6-one] | – | significantly and consistently inhibited | showed protection | – | 1.5 | less active | significantly and consistently inhibited | > 50 | 14.5 | – | – | – |
| C=C(C)[C@H]1CCc2c(c(C)cc(O)c(=O)c2O)C1 [Manicol, 5,7-dihydroxy-2-isopropenyl-9-methyl-1,2,3,4-tetrahydro-benzocyclohepten-6-one, reference compound] | 13.6 | – | no protection | – | – | – | – | – | – | potently and specifically inhibit | 13.6 | ineffective |
